Results taken from PMC7813677 (Frontiers in Bioengineering and Biotechnology, 2021).
Non-standard residues stand in square brackets, D forms with d. Residues, ends and D or L forms follow the SMILES beside them.

Experiment: Dissolution of the peptide in water
Type: physicochemical
Conditions: before addition of saline buffer pH 7.4
Procedure: Gels were prepared by dissolving lyophilized peptide in water to obtain 2X concentrated (wt%) peptide stock solution. Peptide assembly was initiated by mixing together equal volumes of peptide stock solution and chilled 2X HEPES buffer solution (150 mM HEPES, 300 mM NaCl, pH 7.4) on ice. The final mixed solution (1X wt% peptide in 75 mM HEPES, 150 mM NaCl, pH 7.4) was then incubated for 2 h at 37°C, resulting with a self-supporting gel.

CC(C)[C@H](N)C(=O)N[C@@H](CCCCN)C(=O)N[C@H](C(=O)N[C@@H](CCCCN)C(=O)N[C@H](C(=O)N[C@@H](CCCCN)C(=O)N[C@H](C(=O)N[C@@H](CCCCN)C(=O)N[C@H](C(=O)N1CCC[C@@H]1C(=O)N1CCC[C@H]1C(=O)N[C@H](C(=O)N[C@@H](CCCCN)C(=O)N[C@H](C(=O)N[C@@H](Cc1ccc(O)cc1)C(=O)N[C@H](C(=O)N[C@@H](CCCCN)C(=O)N[C@H](C(=O)N[C@@H](CCCCN)C(=O)N[C@H](C(N)=O)C(C)C)C(C)C)C(C)C)C(C)C)[C@@H](C)O)C(C)C)C(C)C)C(C)C)C(C)C [tyrosine-functionalized peptide] (H-VKVKVKVKV[dP]PTKVYVKVKV-NH2)
Solubility in water: readily dissolved in water
